# Assay results as given in article PMC7367283, “A PIP2 substitute mediates voltage sensor-pore coupling in KCNQ activation” (Communications Biology, 2020).
# Target: IKs channels (Homo sapiens, UniProt P51787)
# Assay: Inside-out patch clamp of IKs channels expressed in Xenopus oocytes (rundown and rescue)
# Type: cell-based
# Details: 10 µM CP1 on intracellular side; pulses to +80 mV
# Description: We tested whether CP1 can mimic PIP2 in mediating VSD-pore coupling. We co-expressed KCNQ1 with the voltage-dependent lipid phosphatase CiVSP[44] in Xenopus oocytes and recorded KCNQ1 currents using two-electrode voltage clamp with consecutive depolarizing voltage pulses. The current increased upon KCNQ1 activation at the beginning of the first voltage pulse (First trace, Fig. 2a) and then declined due to CiVSP activation to deplete PIP2[18]. A subsequent voltage pulse elicited much smaller KCNQ1 currents (Rundown trace, Fig. 2a) as a result of PIP2 depletion that had insufficient time to be replenished by endogenous enzymes between the pulses. […] Similarly, the IKs channel (KCNQ1 + KCNE1) currents decrease upon co-expression with CiVSP with consecutive voltage pulses (Fig. 2c, d), which is similar to our previous observations. […] To more directly test CP1 effects, we applied CP1 to the intracellular side of the inside-out membrane patch that expressed IKs channels. […]
# Macroscopic currents expressed in Xenopus oocytes were recorded from inside-out patches formed with borosilicate pipettes of 0.5–1.0-MΩ resistance. […]
structure (smiles),measurement,value
"O=S(=O)([O-])Oc1c(-c2sc3c(ccc4cccc(Cl)c43)c2OS(=O)(=O)[O-])[nH]c2ccc(Br)cc12.[Na+].[Na+] [CP1, DISODIUM 5-BROMO-2-[9-CHLORO-3-(SULFONATOOXY) NAPHTHO [1,2-B] THIEN-2-YL]-1H-INDOL-3-YL SULFATE]",IKs current after rundown in inside-out patch,the current increased with consecutive voltage pulses
